For assay [1], the system named is cholesteryl esters. Briefly: In Vivo Assay of Hypolipidemic Agents Using the Hyperlipidemic Hamster. The following applies: Mesocricetus auratus, po, 168 h, oral gavage once daily, 7 days, versus control, read-out: % Reduction in cholesteryl esters; for change in vivo at 50 mg/kg: 50 mpk; for change in vivo at 25 mg/kg: 25 mpk; for change in vivo at 10 mg/kg: 10 mpk. How it is done:
In Vivo Assay of Hypolipidemic Agents Using the Hyperlipidemic Hamster
Hamsters are separated into groups of six and given a control cholesterol diet (Pudna Chow #5001 containing 0.5% cholesterol) for seven days. Diet consumption is monitored to determine dietary cholesterol exposure in the face of test compounds. The animals are dosed with the test compound once daily beginning with the initiation of diet. Dosing is by oral gavage of 0.2 mL of corn oil alone (control group) or solution (or suspension) of test compound in corn oil. All animals moribund or in poor physical condition are euthanized. After seven days, the animals are anesthetized by […] of ketamine and sacrificed by decapitation. Blood is collected into vacutainer tubes containing EDTA for plasma lipid analysis and the liver excised for tissue lipid analysis. Data is reported as percent reduction of lipid versus control.
(§1) Using the assay methods described above, the compounds of Examples 1-9 were tested for in vitro ACAT inhibitory activity and for the ability to lower the level of cholesteryl esters in vivo.

For assay [2], the system named is ACAT. Briefly: ACAT Assay (in vitro). The class given is biochemical. To be noted: dose = 10 μM; rat liver microsomes. How it is done:
This assay measures the activity of ACAT by measuring the ACAT-mediated transfer of tritiated oleic acid from acyl-CoA to cholesterol to give labelled cholesterol oleate. Rat liver microsomes are used as the source of ACAT. Assays are performed in round bottom microtiterplates using a total incubation volume of 50 μL. Each incubation well receives 10 μL assay buffer (0.5M KHPO4, 10 μM dithiothreitol, pH 7.4), 7.5 μL of 40 mg/mL BSA (Bovine Serum Albumin) and 12.5 μg of microsomal protein. The test compound (in sufficient amount to bring the final concentration to from 0.1 to 25 μM), reference compound, or vehicle control is added and the final volume brought to 47 μL. The microtiterplate is then floated on the surface of a 37° C. water bath for fifteen minutes. Incubations are started by the addition of 3 μL ^3 H-acyl CoA (1 μCi/well, final concentration of 10 μM acyl CoA). The plate is then returned to the water bath for 15 minutes. The incubations are then terminated by application of 15 μL from each incubation to individual lanes on a thin layer plate (Silica Gel GF 20×20 cm). Standards are applied to several lanes so that the cholesterol ester band can be identified. After drying, the plates are eluted with 90:10:1 petroleum ether:ether:HOAc. The standards are visualized via iodine vapor, and the regions corresponding to cholesterol ester are scraped into 7 mL scintillation vials. 4 mL of scintillant are added to each vial, and the radioactivity quantified. Background count is determined by the boiled controls. Full activity is determined by activity in the presence of vehicle. The percent inhibition is calculated by subtracting the background from both control and test samples, and the test value is calculated as a percentage of the control. For IC50 determinations, the inhibition is plotted against drug doses on a log scale and the concentration at which 50% inhibition is obtained is determined.
as §1
(In general: Microsomes from liver hold many membrane-bound enzymes, among them those of drug oxidation.)

For `O=C(N[C@@H]1c2ccccc2C[C@H]1c1ccc(O)cc1)C(c1ccccc1)c1ccccc1` (relative stereo) [Example 3E], the change in vivo at 50 mg/kg in assay [1] was -52%. Also, the “ACAT % Inhibition” value in assay [2] amounted to 99%.

Take `COc1ccc2c(c1)C[C@H](c1ccccc1)[C@H]2NC(=O)C(c1ccccc1)c1ccccc1` (relative stereo) [Example 2K]: in assay [1], the change in vivo at 25 mg/kg was determined as 17%. In assay [2], the “ACAT % Inhibition” value amounted to 90%.

As to `CCCCCCCCCC(C)(C)C(=O)N[C@H]1c2ccccc2CC[C@@H]1c1ccc(OC)cc1` (relative stereo) [Example 1F], the change in vivo at 50 mg/kg in assay [1] was determined as 0%. Moreover, in assay [2], the “ACAT % Inhibition” value is listed as 36%.

As for `O=C(N[C@@H]1c2cc(O)ccc2CC[C@@H]1c1ccccc1)C(c1ccccc1)c1ccccc1` (relative stereo) [Example 3P], the change in vivo at 50 mg/kg in assay [1] is 0%. In addition, in assay [2], the “ACAT % Inhibition” value is reported as 75%.

In the case of `O=C(N[C@H]1c2ccccc2C[C@H]1c1ccccc1)C(c1ccccc1)c1ccccc1` (relative stereo) [Example 2S], in assay [1], the change in vivo at 50 mg/kg stood at 16%. In assay [2], the “ACAT % Inhibition” value stood at 83%.

Consider `CCCCCCCC/C=C\CCCCCCCC(=O)N[C@H]1c2ccccc2OC[C@H]1c1ccccc1` (relative stereo) [Example 2N], for which, in assay [1] (100 mpk), the change in vivo at 100 mg/kg turned out to be 0%. In assay [2], the “ACAT % Inhibition” value is 85%.

In the case of `O=C(N[C@@H]1c2ccccc2CC[C@H]1c1ccc(O)cc1)C(c1ccccc1)c1ccccc1` (relative stereo) [Example 3G], in assay [1], the change in vivo at 25 mg/kg was -43% and the change in vivo at 50 mg/kg is -57%. In assay [2], the “ACAT % Inhibition” value came out at 93%.

In the case of `O=C(N[C@H]1c2ccccc2C[C@H]1c1ccc(O)cc1)C(c1ccccc1)c1ccccc1` (relative stereo) [Example 3, cis-N-[2-(4'-hydroxyphenyl)indanyl]-αphenylbenzeneacetamide], in assay [1], the change in vivo at 10 mg/kg is -71%, the change in vivo at 25 mg/kg was -87.5% and the change in vivo at 50 mg/kg was -89%. In addition, the “ACAT % Inhibition” value in assay [2] was 99%.

Regarding `O=C(N[C@@H]1c2ccccc2CC[C@@H]1c1ccc(O)cc1)C(c1ccccc1)c1ccccc1` (relative stereo) [Example 3F], the change in vivo at 50 mg/kg in assay [1] is -16%. Moreover, in assay [2], the “ACAT % Inhibition” value was 91%.

Turning to `Nc1cccc([C@H]2Cc3ccccc3[C@H]2NC(=O)C(c2ccccc2)c2ccccc2)c1` (relative stereo) [Example 5A, cis-N-[2-(3'-aminophenyl)indanyl]-α-phenylbenzeneacetamide], the change in vivo at 10 mg/kg in assay [1] worked out at 0%. Further, the “ACAT % Inhibition” value in assay [2] was 95%.

Turning to `COc1ccc([C@H]2Cc3ccccc3[C@@H]2NC(=O)C(c2ccccc2)c2ccccc2)cc1` (relative stereo) [Example 2F], the change in vivo at 50 mg/kg in assay [1] came out at 0%. Further, in assay [2], the “ACAT % Inhibition” value is 19%.

For `O=C(N[C@@H]1c2ccccc2CC[C@@H]1c1cccc(O)c1)C(c1ccccc1)c1ccccc1` (relative stereo) [Example 3C], in assay [1], the change in vivo at 50 mg/kg was 0%. For the same compound, in assay [2], the “ACAT % Inhibition” value is given as 77%.

Take `O=C(N[C@H]1c2ccccc2C[C@H]1c1cccc([N+](=O)[O-])c1)C(c1ccccc1)c1ccccc1` (relative stereo) [Example 2C]: in assay [1], the change in vivo at 50 mg/kg stood at 0%. In addition, in assay [2], the “ACAT % Inhibition” value was 99%.

As to `O=C(N[C@@H]1c2ccccc2CC[C@H]1c1ccc(O)cc1)N(c1ccccc1)c1ccccc1` (relative stereo) [Example 3I], the change in vivo at 50 mg/kg in assay [1] is -16%. The “ACAT % Inhibition” value in assay [2] amounted to 99%.

As for `O=C(N[C@@H]1c2ccc(O)cc2CC[C@@H]1c1ccccc1)C(c1ccccc1)c1ccccc1` (relative stereo) [Example 3M], in assay [1], the change in vivo at 50 mg/kg was -45%. In addition, in assay [2], the “ACAT % Inhibition” value is 87%.

Turning to `COc1cccc([C@@H]2Cc3ccccc3[C@@H]2NC(=O)C(c2ccccc2)c2ccccc2)c1` (relative stereo) [Example 2A], the change in vivo at 50 mg/kg in assay [1] was 0%. Further, the “ACAT % Inhibition” value in assay [2] was 99%.

Turning to `COc1ccc([C@@H]2Cc3ccccc3[C@@H]2NC(=O)C(c2ccccc2)c2ccccc2)cc1` (relative stereo) [Example 2, cis-N-[2-(4'-methoxyphenyl)indanyl]-α-phenylbenzeneacetamide], in assay [1], the change in vivo at 50 mg/kg is -17%. Also, in assay [2], the “ACAT % Inhibition” value was 96%.

The values are drawn from patent US5416118A, “Bicyclic amides as inhibitors of acyl-coenzyme A: cholesterol acyl transferase” (Schering Corporation, priority 1993, dated 1995).
